Experimental data reported in patent US11339130B1 (Blade Therapeutics, Inc., priority 2016, dated 2022).

Tests used:
[1] = system: Calpain activity in SH-SY5Y cells (SBDP-150); experiment: SH-SY5Y Spectrin western blot assay (SBDP-150 breakdown product, A23187-induced); format: cell-based; conditions: Homo sapiens; Column D; SH-SY5Y cells, A23187-induced SBDP-150; read-out: SH-SY5Y Spectrin IC50
[2] = biological target: T1, Human Calpain 1/NS1 (Homo sapiens, UniProt P07384); experiment: Calpain inhibition continuous fluorescence (FRET) assay, Human Calpain 1/NS1; format: biochemical; conditions: Column A; read-out: Human Calpain 1/NS1 IC50
T1 sequence (P07384 1-714): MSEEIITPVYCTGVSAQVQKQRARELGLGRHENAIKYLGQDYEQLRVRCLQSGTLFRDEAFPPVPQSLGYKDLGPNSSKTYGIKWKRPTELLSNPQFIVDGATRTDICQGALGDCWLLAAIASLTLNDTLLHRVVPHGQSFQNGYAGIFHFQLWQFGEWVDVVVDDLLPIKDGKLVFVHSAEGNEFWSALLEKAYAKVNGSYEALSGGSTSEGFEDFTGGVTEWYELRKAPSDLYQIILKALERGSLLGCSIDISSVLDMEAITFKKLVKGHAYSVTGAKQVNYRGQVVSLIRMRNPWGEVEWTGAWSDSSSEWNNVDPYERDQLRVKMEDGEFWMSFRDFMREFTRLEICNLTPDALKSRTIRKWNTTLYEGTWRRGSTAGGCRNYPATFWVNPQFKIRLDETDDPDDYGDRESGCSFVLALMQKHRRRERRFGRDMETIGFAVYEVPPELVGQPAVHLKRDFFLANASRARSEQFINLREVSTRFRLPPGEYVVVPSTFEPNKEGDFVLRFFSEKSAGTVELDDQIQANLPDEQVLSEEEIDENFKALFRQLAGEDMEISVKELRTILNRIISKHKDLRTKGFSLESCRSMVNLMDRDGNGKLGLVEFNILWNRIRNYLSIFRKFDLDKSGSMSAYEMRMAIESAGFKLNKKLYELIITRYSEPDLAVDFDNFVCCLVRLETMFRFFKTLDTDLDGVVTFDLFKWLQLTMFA
T1 sequence (P04632 1-268 partner): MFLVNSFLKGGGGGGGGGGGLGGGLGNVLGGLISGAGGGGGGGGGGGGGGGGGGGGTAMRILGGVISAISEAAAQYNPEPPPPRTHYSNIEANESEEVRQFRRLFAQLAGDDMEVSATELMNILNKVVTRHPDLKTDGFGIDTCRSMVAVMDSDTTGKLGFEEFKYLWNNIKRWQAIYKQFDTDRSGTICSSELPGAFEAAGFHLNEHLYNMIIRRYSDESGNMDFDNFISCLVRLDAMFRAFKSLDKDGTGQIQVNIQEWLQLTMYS
Outline: (§1)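 Fluorescence increase from the cleaved 5-FAM/QXL 520 substrate, read at 490/520 nm, gave activity. Calcium was supplied with the substrate to activate the enzyme in situ after a 25C enzyme-inhibitor preincubation, and IC50s were fit from initial slopes.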

[3] = biological target: T2, Human Calpain 2/NS1 (Homo sapiens, UniProt P17655); experiment: Calpain inhibition continuous fluorescence (FRET) assay, Human Calpain 2/NS1; format: biochemical; conditions: Column B; read-out: Human Calpain 2/NS1 IC50
T2 sequence (P17655 1-700): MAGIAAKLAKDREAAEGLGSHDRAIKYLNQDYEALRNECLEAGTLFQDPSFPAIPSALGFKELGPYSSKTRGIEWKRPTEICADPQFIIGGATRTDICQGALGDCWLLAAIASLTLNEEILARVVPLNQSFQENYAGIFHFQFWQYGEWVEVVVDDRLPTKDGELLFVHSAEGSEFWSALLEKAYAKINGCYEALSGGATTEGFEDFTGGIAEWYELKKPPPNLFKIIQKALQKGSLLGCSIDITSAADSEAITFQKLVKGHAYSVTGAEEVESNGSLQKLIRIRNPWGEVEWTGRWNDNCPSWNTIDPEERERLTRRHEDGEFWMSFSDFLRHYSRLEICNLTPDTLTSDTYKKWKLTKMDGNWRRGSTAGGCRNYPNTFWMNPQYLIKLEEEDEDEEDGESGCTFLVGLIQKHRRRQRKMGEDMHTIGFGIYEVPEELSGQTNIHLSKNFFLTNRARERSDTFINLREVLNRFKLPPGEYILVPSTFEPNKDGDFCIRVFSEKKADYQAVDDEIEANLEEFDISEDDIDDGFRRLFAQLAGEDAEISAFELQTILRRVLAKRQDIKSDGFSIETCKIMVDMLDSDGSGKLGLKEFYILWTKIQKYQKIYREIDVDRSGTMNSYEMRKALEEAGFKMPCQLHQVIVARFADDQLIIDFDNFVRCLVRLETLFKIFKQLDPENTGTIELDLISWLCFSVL
T2 sequence (P04632 1-268 partner): T1 sequence (P04632 1-268 partner)
Outline: as §1

[4] = system: Calpain activity in SH-SY5Y cells; experiment: SH-SY5Y + AMC fluorescence assay (Suc-LLVY-AMC substrate); format: cell-based; conditions: Column E, read-out: SH-SY5Y + AMC IC50
[5] = biological target: T3, Human Calpain 9/NS1 (Homo sapiens, UniProt O14815); experiment: Calpain inhibition continuous fluorescence (FRET) assay, Human Calpain 9/NS1; format: biochemical; conditions: Column C; read-out: Human Calpain 9/NS1 IC50
T3 sequence (O14815 1-690): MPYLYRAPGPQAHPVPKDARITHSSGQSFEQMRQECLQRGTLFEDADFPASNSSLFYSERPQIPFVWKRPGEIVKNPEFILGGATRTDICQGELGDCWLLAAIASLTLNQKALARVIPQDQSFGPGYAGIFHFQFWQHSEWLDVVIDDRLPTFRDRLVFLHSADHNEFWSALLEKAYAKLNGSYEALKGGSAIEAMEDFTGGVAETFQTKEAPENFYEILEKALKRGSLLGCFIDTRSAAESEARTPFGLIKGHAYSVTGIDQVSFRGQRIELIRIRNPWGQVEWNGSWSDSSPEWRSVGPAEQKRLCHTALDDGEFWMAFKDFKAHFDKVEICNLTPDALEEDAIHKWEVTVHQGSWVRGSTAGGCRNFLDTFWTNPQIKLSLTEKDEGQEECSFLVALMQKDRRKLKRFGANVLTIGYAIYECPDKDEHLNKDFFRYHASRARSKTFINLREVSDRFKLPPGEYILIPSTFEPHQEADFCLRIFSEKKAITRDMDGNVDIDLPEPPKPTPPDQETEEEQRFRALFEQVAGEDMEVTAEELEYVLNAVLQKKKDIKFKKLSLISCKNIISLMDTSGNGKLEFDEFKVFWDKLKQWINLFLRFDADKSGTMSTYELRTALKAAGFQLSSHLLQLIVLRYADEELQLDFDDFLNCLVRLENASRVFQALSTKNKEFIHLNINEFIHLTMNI
T3 sequence (P04632 1-268 partner): T1 sequence (P04632 1-268 partner)
Outline: as §1

SMILES | IC50 [1] | IC50 [2] | IC50 [3] | IC50 [4] | IC50 [5]
Cc1noc(-c2ccccc2)c1C(=O)N[C@@H](Cc1ccc(F)cc1)C(=O)C(N)=O [Compound 58] | 10 to 25 µM | < 3 µM | < 3 µM | > 25 µM | < 3 µM
COc1cccc(-n2nc(C)cc2C(=O)N[C@@H](Cc2ccccc2)C(=O)C(N)=O)n1 [Compound 99, (S)—N-(4-amino-3,4-dioxo-1-phenylbutan-2-yl)-1-(6-methoxypyridin-2-yl)-3-methyl-1H-pyrazole-5-carboxamide] | 10 to 25 µM | < 3 µM | < 3 µM | 10 to 25 µM | < 3 µM
Cc1cc(C(=O)N[C@@H](Cc2ccccc2)C(=O)C(N)=O)n(-c2cccc(-c3ccc(F)cc3)c2)n1 [Compound 103, (S)—N-(4-amino-3,4-dioxo-1-phenylbutan-2-yl)-1-(4′-fluoro-[1,1′-biphenyl]-3-yl)-3-methyl-1H-pyrazole-5-carboxamide] | > 25 µM | < 3 µM | < 3 µM | > 25 µM | < 3 µM
Cc1cccc(-c2cccc(-n3nc(C)cc3C(=O)N[C@@H](Cc3ccccc3)C(=O)C(N)=O)c2)c1 [Compound 105, (S)—N-(4-amino-3,4-dioxo-1-phenylbutan-2-yl)-3-methyl-1-(3′-methyl-[1,1′-biphenyl]-3-yl)-1H-pyrazole-5-carboxamide] | > 25 µM | < 3 µM | < 3 µM | > 25 µM | < 3 µM
NC(=O)C(=O)[C@H](Cc1ccccc1)NC(=O)c1cncn1-c1ccc(-c2ncco2)cn1 [Compound 112, (S)—N-(4-amino-3,4-dioxo-1-phenylbutan-2-yl)-1-(5-(oxazol-2-yl)pyridin-2-yl)-1H-imidazole-5-carboxamide] | < 10 µM | < 3 µM | < 3 µM | > 25 µM | < 3 µM
Cc1cc(C(=O)N[C@@H](Cc2ccccc2)C(=O)C(N)=O)n(-c2ncc(-c3ccccc3)s2)n1 [Compound 113, (S)—N-(4-amino-3,4-dioxo-1-phenylbutan-2-yl)-3-methyl-1-(5-phenylthiazol-2-yl)-1H-pyrazole-5-carboxamide] | < 10 µM | < 3 µM | < 3 µM | > 25 µM | < 3 µM

Other lines, results leading:

IC50 [1] | IC50 [2] | IC50 [3] | IC50 [4] | IC50 [5] | SMILES
< 10 µM | < 3 µM | < 3 µM | > 25 µM | < 3 µM | Cc1nnn(-c2ccccc2)c1C(=O)N[C@@H](Cc1ccccc1)C(=O)C(N)=O [Compound 55, (S)—N-(4-amino-3,4-dioxo-1-phenylbutan-2-yl)-4-methyl-1-phenyl-1H-1,2,3-triazole-5-carboxamide]
< 10 µM | < 3 µM | < 3 µM | 10 to 25 µM | < 3 µM | Cc1noc(-c2ccccc2)c1C(=O)N[C@@H](Cc1c[nH]c2ccccc12)C(=O)C(N)=O [Compound 57, (S)—N-(4-amino-1-(1H-indol-3-yl)-3,4-dioxobutan-2-yl)-3-methyl-5-phenylisoxazole-4-carboxamide]
< 10 µM | < 3 µM | < 3 µM | < 10 µM | < 3 µM | Cc1cc(C(=O)N[C@@H](Cc2ccccc2)C(=O)C(N)=O)n(-c2cnccn2)n1 [Compound 63, (S)—N-(4-amino-3,4-dioxo-1-phenylbutan-2-yl)-3-methyl-1-(pyrazin-2-yl)-1H-pyrazole-5-carboxamide]
< 10 µM | < 3 µM | < 3 µM | 10 to 25 µM | < 3 µM | Cc1cc(C(=O)N[C@@H](Cc2ccccc2)C(=O)C(N)=O)n(-c2cccc(-c3ccccc3C)c2)n1 [Compound 81, (S)—N-(4-amino-3,4-dioxo-1-phenylbutan-2-yl)-3-methyl-1-(2′-methyl-[1,1′-biphenyl]-3-yl)-1H-pyrazole-5-carboxamide]
< 10 µM | < 3 µM | < 3 µM | > 25 µM | < 3 µM | Cc1cc(C(=O)N[C@@H](Cc2ccccc2)C(=O)C(N)=O)n(-c2nc(-c3ccccc3)cs2)n1 [Compound 82, (S)—N-(4-amino-3,4-dioxo-1-phenylbutan-2-yl)-3-methyl-1-(4-phenylthiazol-2-yl)-1H-pyrazole-5-carboxamide]
< 10 µM | < 3 µM | < 3 µM | > 25 µM | < 3 µM | Cc1cc(C(=O)N[C@@H](Cc2ccccc2)C(=O)C(N)=O)n(-c2ccc(-c3ccccc3)cc2)n1 [Compound 83, (S)-1-([1,1′-biphenyl]-4-yl)-N-(4-amino-3,4-dioxo-1-phenylbutan-2-yl)-3-methyl-1H-pyrazole-5-carboxamide]
< 10 µM | < 3 µM | < 3 µM | < 10 µM | < 3 µM | Cc1cccc(-n2nc(C)cc2C(=O)N[C@@H](Cc2ccccc2)C(=O)C(N)=O)n1 [Compound 84, (S)—N-(4-amino-3,4-dioxo-1-phenylbutan-2-yl)-3-methyl-1-(6-methylpyridin-2-yl)-1H-pyrazole-5-carboxamide]
< 10 µM | < 3 µM | < 3 µM | > 25 µM | < 3 µM | Cc1cc(C(=O)N[C@@H](Cc2ccccc2)C(=O)C(N)=O)n(-c2cccc(-c3cccc(F)c3)c2)n1 [Compound 106, (S)—N-(4-amino-3,4-dioxo-1-phenylbutan-2-yl)-1-(3′-fluoro-[1,1′-biphenyl]-3-yl)-3-methyl-1H-pyrazole-5-carboxamide]
< 10 µM | < 3 µM | < 3 µM | < 10 µM | < 3 µM | Cc1nc(-c2ccccc2)c(C(=O)N[C@@H](Cc2ccc(F)cc2)C(=O)C(N)=O)o1 [Compound 107, (S)—N-(4-amino-1-(4-fluorophenyl)-3,4-dioxobutan-2-yl)-2-methyl-4-phenyloxazole-5-carboxamide]
